This note sets out measurements from publication PMC3003687, “α-Galactosylceramide Analogs with Weak Agonist Activity for Human iNKT Cells Define New Candidate Anti-Inflammatory Agents” (PLoS ONE, 2010).

As a reminder, the EC50 is the concentration at which the effect is half-maximal. A lower EC50 goes with a more potent agent.

In one assay the test system is human iNKT cell clones. Description: Cytokine ELISA of human iNKT cell clones stimulated with glycolipid-pulsed CD1d-transfected HeLa cells. It is filed as cell-based. The settings on record: for dose inducing the lowest activation state (IL-13 and GM-CSF secretion): CD1d-transfected Hela cells and dendritic cells as APCs; for iNKT cell clone cytokine response / agonist activity: dose range, IFNγ, IL-4, IL-13, clones HDD3, HDD11, HDE3, HDA7. Here is the method: Capture ELISA assays were used for measurement of cytokine responses of human iNKT cells to αGalCer analogs. One day prior to the experiment, CD1d transfected HeLa cells were plated at 25×10^3 cells/well in 100 µL of medium in flat-bottom 96 well plates. Glycolipids were then added in 100 µL of medium to give final concentrations ranging from 0.05 to 10^4 nM. The APCs were incubated for approximately 18 hours with the glycolipids and then irradiated (10,000 Rad) and washed twice with PBS prior to addition of 25×10^3 iNKT cells well in 300 µL. Supernatants were harvested after 24 hours of co-culture and stored frozen at -20°C. After thawing, aliquots of the supernatants were assayed for specific cytokines by ELISA using capture and biotin-labeled detection antibody pairs specific for GM-CSF, IL-2, IL-4, IL-12p70 and IL-13 (all obtained from BD Biosciences), IFNγ (Thermo-Scientific) or IL-18 (MBL). Specific signals were developed using HRP- conjugated streptavidin (BD Biosciences) and Turbo TMB substrate (Thermo-Scientific). Supernatants were tested pure and/or diluted to give values within a quantitative linear standard curve generated with recombinant cytokines. Curves of dose-dependent cytokine responses and graphs were plotted using the Graphpad Prism Software. EC50 values were calculated using the function log (agonist) response with variable slope, and statistical analyses were carried out using the same software. To calculate concentration-dependent cytokine ratios, IL-4/IFNγ and IL-13/IFNγ ratios were calculated using cytokine values from which background levels (i.e. levels in cultures receiving DMSO vehicle alone) were subtracted. Ratios were calculated by dividing IL-4 or IL-13 concentrations in pg/mL by IFNγ concentration in ng/mL.

The target in another assay is Human iNKT TCRs (Homo sapiens, UniProt A0A075B6N4+A0A0B4J240+P15813). Briefly: Equilibrium binding of analog-loaded hCD1d tetramers to iNKT cell clones. An excerpt:
For flow cytometric analysis, 6B11 (Vα24Jα18 specific) and mAbs specific for human CD3, CD4, CD8α, CD19, CD40L (CD154), CD56, CD69, GM-CSF & IFNγ were obtained from BD Biosciences. IL-4 and IL-13 specific mAbs were from Biolegend. Vα24 (C15) and Vβ11 (C21) specific mAb were from Immunotech. For antibody blocking in culture assays, non-specific isotype matched control, IL-2, IFNγ, IL-12p70 and CD40L specific mAbs without preservatives were obtained from BD Biosciences and IL-18 specific mAb from Medical & Biological Laboratories (MBL, Nagoya, Japan). Phycoerythrin and allophycocyanin labeled human CD1d tetramers were prepared in our laboratory as previously described. Curves of tetramer equilibrium binding constants and graphs were plotted using the Graphpad Prism Software (Version 5). KD values were calculated using the function non-linear fit (hyperbola, one binding site).
To characterize in more detail the iNKT cell TCR recognition of αGalCer analogs presented by human CD1d, we generated soluble and fluorescent tetrameric hCD1d molecules loaded with each of the glycolipid analogs. […] This was similar to the previously reported failure of mouse CD1d tetramer loaded with lysosulfatide to bind detectably to murine non-invariant and sulfatide specific NKT cells, despite a clear reactivity to this lipid upon presentation by APCs; [40]. […] To quantitate their binding avidities to iNKT cell TCRs, we used titration of analog-loaded hCD1d tetramers to determine equilibrium dissociation constants (KD), which are inversely proportional to avidity (Figure 3A and 3B).
Figure 3 Characterization of human iNKT cell TCR interactions with analog-loaded tetramers. (A) iNKT cell clones were stained with titrated amounts of hCD1d tetramers loaded with the indicated glycolipids (abbreviations as in legend to Figure 1), and the measured MFI values are plotted for selected glycolipids. (B) The equilibrium dissociation constants (KD, inversely proportional to TCR avidity) were determined as the concentrations of tetramers required to yield 50% of maximal binding. Data shown were obtained using the CD4^+ iNKT cell clone HDD3, and similar results (not shown) were obtained with a second CD4^+ clone (HDD11) and a CD4^−8^− double negative iNKT cell clone (HDE3). (C) Analysis of iNKT cell clones labeled with 20 nM of hCD1d tetramers which were loaded with variable excesses of analog to constant hCD1d (25 to 1000 fold molar excess of glycolipid to hCD1d protein). The measured MFI values were normalized as the percent of the maximum staining intensity obtained with each analog loaded tetramer. Data presented were generated with HDD3 (CD4+) iNKT cell clone, and similar results (not shown) were obtained with HDE3 (DN) clone.

Where [1] appears, read: CD1d-transfected HeLa APC, 24 h co-culture, ELISA.

A value given as a limit tells only on which side of the number the result lay.

Human iNKT TCRs, sequence (P15813 20-301): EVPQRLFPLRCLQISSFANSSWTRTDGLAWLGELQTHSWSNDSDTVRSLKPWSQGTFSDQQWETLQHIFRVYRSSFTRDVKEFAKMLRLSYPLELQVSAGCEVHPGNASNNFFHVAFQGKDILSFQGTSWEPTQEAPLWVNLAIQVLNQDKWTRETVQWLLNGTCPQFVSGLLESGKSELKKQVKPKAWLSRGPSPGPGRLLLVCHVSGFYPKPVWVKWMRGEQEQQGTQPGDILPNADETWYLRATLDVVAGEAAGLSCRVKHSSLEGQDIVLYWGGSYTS
Human iNKT TCRs, sequence (P01848 whole entry, further chain): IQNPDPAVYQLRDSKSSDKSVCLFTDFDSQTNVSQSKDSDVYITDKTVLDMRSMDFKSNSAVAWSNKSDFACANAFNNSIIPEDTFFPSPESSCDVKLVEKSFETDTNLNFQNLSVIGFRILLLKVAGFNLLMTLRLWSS
Human iNKT TCRs, sequence (A0A0B4J240 22-114): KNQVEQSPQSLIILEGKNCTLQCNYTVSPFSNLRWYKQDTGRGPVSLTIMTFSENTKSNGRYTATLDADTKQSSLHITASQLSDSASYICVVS
Human iNKT TCRs, sequence (P61769 21-119, further chain): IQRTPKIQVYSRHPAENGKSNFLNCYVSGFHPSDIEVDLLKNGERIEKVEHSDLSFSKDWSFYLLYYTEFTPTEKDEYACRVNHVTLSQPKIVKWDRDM
Human iNKT TCRs, sequence (A0A075B6N4 22-114): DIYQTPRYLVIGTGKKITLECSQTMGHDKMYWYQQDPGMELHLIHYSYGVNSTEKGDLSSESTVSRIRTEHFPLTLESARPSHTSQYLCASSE

With `CCCCC/C=C\C/C=C\CCCCCCCCCC(=O)N[C@@H](CO[C@H]1O[C@H](CO)[C@H](O)[C@H](O)[C@H]1O)[C@H](O)[C@H](O)CCCCCCCCCCCCCC` [C20:2], in the assay with human iNKT cell clones, the “dose inducing the lowest activation state (IL-13 and GM-CSF secretion)” value was below 1 nM; the “iNKT cell clone cytokine response / agonist activity” value is “strong agonist activity”. In addition, at Human iNKT TCRs, the “avidity of human iNKT TCRs for analog in complex with hCD1d” value (“avidity of human iNKT TCRs for analog” for short) is listed as “strong avidity”.

`CCCCC/C=C\C/C=C\C/C=C\C/C=C\CCCC(=O)N[C@@H](CO[C@H]1O[C@H](CO)[C@H](O)[C@H](O)[C@H]1O)[C@H](O)[C@H](O)CCCCCCCCCCCCCC` [C20:4] had an EC50 in the assay on human iNKT cell clones (Homo sapiens, iNKT, HDD3 clone, IL-4 levels did not reach a plateau) above 10 µM. Also, the “iNKT cell clone cytokine response / agonist activity” value with human iNKT cell clones is on record as “substantially lower iNKT cell response”. Further, the “avidity of human iNKT TCRs for analog” value at Human iNKT TCRs is “strong avidity”.

On to `CCCCCCCCCCCCCCCCCCCCCCCCCC(=O)N[C@@H](CO[C@H]1O[C@H](CO)[C@H](O)[C@H](O)[C@H]1O)[C@H](O)[C@H](O)CCCCCCCCCCCCCC` [KRN7000, reference compound], for which, in the assay on human iNKT cell clones (setting [1]), the “concentration at which IL-13 production was induced” value was at most 0.1 nM; the “concentration reaching maximal IL-13 production” value is on record as “approximately 1 nM”; the “higher concentration required for IFNγ to be induced and reach plateau, relative to IL-13” value is listed as “approximately 1 log”. Also, the “concentration saturating IL-4 production” value with human iNKT cell clones (CD1d-transfected HeLa APC, data not shown) is reported as “very high KRN7000 concentrations in the µM range”. For the same compound, in the assay on human iNKT cell clones, the “dose inducing the lowest activation state (IL-13 and GM-CSF secretion)” value is recorded as below 1 nM; the “iNKT cell clone cytokine response / agonist activity” value is given as “strong agonist activity”. For the same compound, the “avidity of human iNKT TCRs for analog” value at Human iNKT TCRs was “strong avidity”.
